# Tests used:
# [1] = test system: PCP site within the NMDAR channel; details: [3H]-(+)-MK-801, rat forebrain, cited from earlier work
# Sprague–Dawley rats [2] = details: rat; cited from earlier work
# [3] = test system: PCP site within the NMDAR channel; assay: NMDAR binding, [3H]-MK-801 displacement in rat forebrain homogenate; details: lower affinity;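 further: IC50 by nonlinear regression of percent specific binding versus log concentration, Ki from IC50 via Cheng-Prusoff, raw counts in CPM, duplicates repeated at least three times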
# Method: The reaction was terminated by vacuum filtration using a 24 well cell harvester (Brandel, Gaithersburg, MD) over presoaked GF/B glass fiber filters (Brandel, Gaithersburg, MD). Filters were washed with room temperature assay buffer (3 x 5 mL). […] IC50 values were determined in Graphpad Prism 5.0 using non-linear regression with log-concentration plotted against percent specific binding. […] Ki values were calculated using the equation of Cheng and Prusoff [24]. […] Protein concentration was determined via the Bradford method using Coomassie protein assay reagent (Sigma, USA) [25] with rat albumin (Sigma, USA) as standard. Experiments were performed in duplicate and repeated a minimum of three times.
# Sprague–Dawley rats [4] = assay: Pre-pulse inhibition (PPI) of acoustic startle in rats; assay type: in vivo, rat; details: higher potency
# Method: Male Sprague–Dawley rats from Harlan Industries (Indianapolis, IN, USA; initial weight 250–275 g) were housed in pairs under a 12-h reverse light/dark cycle (lights off at 0700 h). Use of a reversed light/dark cycle allows behavioral testing to be conducted during the awake phase of the light/dark cycle. Food and water were available ad libitum. Animals were acclimatized for approximately 1 wk after arrival prior to behavioral testing and maintained in Association for Assessment and Accreditation of Laboratory Animal Care (AAALAC)-approved facilities that meet all federal and state guidelines. Procedures were approved by the University of California San Diego institutional animal care and use committee. Principles of laboratory animal care were followed.
# DPH hydrochloride and 2-MXP hydrochloride were dissolved in water containing 5% Tween-80 and administered subcutaneously, 10-min prior to the start of the startle test session. The injection volume was 1 ml/kg.
# Eight startle chambers (SR-LAB system, San Diego Instruments, San Diego, CA, USA) were used to measure startle reactivity in rats. The startle test chambers were sound-attenuated, lighted, and ventilated enclosures containing a clear nonrestrictive cylindrical Plexiglas stabilimeter, 8.2 cm in diameter. A high-frequency loudspeaker mounted 24 cm above the Plexiglas cylinder produced all acoustic stimuli. The peak and average amplitudes of the startle response were detected by a piezoelectric accelerometer. At the onset of the startling stimulus, 100 1-ms readings were recorded, and the average amplitude was used to determine the magnitude of the startle response (measured in arbitrary units).
# Acoustic startle test sessions consisted of startle trials (pulse-alone) and prepulse trials (prepulse + pulse). The pulse-alone trial consisted of a 40-ms 120-dB pulse of broadband white noise. Prepulse + pulse trials consisted of a 20-ms acoustic prepulse, an 80-ms delay, and then a 40-ms 120-dB startle pulse (100-ms onset–onset). There was an average of 15 s (range = 6–22 s) between trials. During each inter-trial interval, the movements of the animals were recorded once to measure response when no stimulus was present (data not shown). Each startle session began with a 5 min acclimation period to a 65-dB broadband noise that was present continuously throughout the session. One week after arrival, animals were tested in a brief baseline startle/PPI session to create treatment groups matched for levels of startle and PPI. The startle test session contained 12 pulse-alone trials and 36 prepulse + pulse trials (12 prepulses each of 68-, 71-, and 77-dB [equivalent to 3-, 6-, and 12-dB above background]) presented in a pseudo-randomized order. Six pulse-alone trials were presented at the beginning and the end of the test session but were not used in the calculation of PPI values. Raw data for all PPI experiments are provided as supporting information (S5 File).
# The amount of PPI was calculated as a percentage score for each prepulse + pulse trial type: %PPI = 100−{[(startle response for prepulse + pulse trial)/(startle response for pulse-alone trial)] × 100}. Startle magnitude was calculated as the average response to all of the pulse-alone trials. PPI data were analyzed with two-factor analysis of variance (ANOVA) with treatment as the between-subjects factor and trial type (prepulse intensity) as a repeated measure. For experiments in which there was no significant interaction between drug and prepulse intensity, PPI data were collapsed across prepulse intensity and average PPI was used as the main dependent measure. ED50 values were calculated using nonlinear regression. Startle magnitude data were analyzed with one-factor ANOVA. Post-hoc analyses were performed using Tukey’s studentized range method. The alpha level was set at 0.05.
compound,measurement,setting,value
"c1ccc(C2(N3CCCCC3)CCCCC2)cc1 [PCP, Phencyclidine]",IC50,[1],91 ± 1.3 nM
same,Ki,[1]; read-out: Ki ± SEM,57.9 ± 0.8 nM
same,ED50 for disruption of PPI,Sprague–Dawley rats [2],3.15 µmol/kg
same,[3H]MK-801 displacement affinity relative to DPH,[3],3 fold
same,potency to alter PPI relative to DPH,Sprague–Dawley rats [4],10 fold

# Source: publication PMC4912077 (PLoS ONE, 2016)
